Experimental data taken from patent US7842702B2, “Treatment for irritable bowel syndrome” (Astellas Pharma Inc., priority 2007, dated 2010).
In brackets after ≈: the same amount, converted by molar mass.

Tests used:
[1] = test system: restraint stress-induced defecation in the acetic acid-induced IBS model; test: Restraint stress-induced defecation in the acetic acid-induced IBS model; type: in vivo, rat; settings: for ED50: Rattus norvegicus, male SD rats, 4% acetic acid IBS model, 30 min before restraint, stools for 1 hour; for ED50 / inhibitory effects on restraint stress-induced defecation (dose dependence): compound 1 po, cromolyn ip; for inhibitory effects on restraint stress-induced defecation (dose dependence): FIGS. 2 and 3
Method: (§1) Preparation of an IBS model was carried out by the following method with reference to the method of Jun-Ho La et al. (World J. Gastroenterol., 2003, vol. 9 (12), pp. 2791-2795). Male Sprague-Dawley (SD) rats or Wistar rats after an overnight fast were used. Colitis was induced by intracolonic instillation of 1 ml 4% acetic acid at 8 cm proximal to the anus for 30 seconds under light ether anesthesia. Then, 1 ml physiological saline was instilled to dilute the acetic acid and flush the colon twice. Rats were recovered from colitis for 6 days, and used for experiments shown in Examples 2 and 3 at 7 days after induction of colitis as “IBS rat (4% acetic acid)”. In addition, rats received physiological saline instead of acetic acid was used as a “control group (saline)”.
Cromolyn was used by dissolving it in physiological saline, and compound 1 and ketotifen were used by dissolving them in 0.5% methylcellulose aqueous solution, respectively. Each compound was intraperitoneally administered (cromolyn) or orally administered (compound 1 and ketotifen) to male SD rats under no fasting at 7 days after the 4% acetic acid treatment or physiological saline treatment. The animals were put into restraint stress cages (product name: KN-468 (B), mfd. by Natsume Seisakusho) 30 minutes thereafter and the number and weight of the stools excreted for 1 hour were measured (“stress”). On the other hand, the normal group was put into individual cage and the number and weight of the stools excreted for 1 hour were measured in the same manner (“normal”). Results of the restraint stress-induced defecation in the agent-nonadministered group are shown in FIG. 1, and the results of agent-administered groups in FIGS. 2 to 4 respectively.

[2] = test system: abdominal contractions caused by colorectal distention in the acetic acid-induced IBS model; test: Viscerosensory response to colorectal distention (number of abdominal contractions) in the acetic acid-induced IBS model; type: in vivo, rat; settings: for inhibitory effects on abdominal contractions, concomitant use with alosetron: alosetron 0.1 mg/kg, po + compound 1 0.01 mg/kg, po or cromolyn 20 mg/kg, ip, FIG. 8
Method: as §1
Male Wistar rats under no fasting at 7 days after 4% acetic acid treatment or physiological saline treatment were used. Under light ether anesthesia, a latex balloon of 6 cm in length was inserted intra-anally until the end of the balloon was 2 cm inside the rectum. The catheter connecting from the balloon was fixed to the tail base with a tape and connected to a pressure transducer via a three-way cock. After restoration from the ether anesthesia in a cage (23.5×19×19 cm), nociceptive behavior (the number of abdominal contractions) to colorectal distention (15, 30, 45, 60 mmHg) applied stepwise at 5 minute intervals was measured. […] In this connection, each compound was administered 30 minutes before the colorectal distention.

rat abdominal mast cells = test: Release of histamine by an antigen-antibody reaction using rat abdominal mast cells (degranulation); type: cell-based; settings: Mast cell, fluorescent method with o-phthalaldehyde, read-out: Degranulation (mast cells) (IC50 μg/ml)
Method: In addition, the inhibitory effects of compound 1 and cromolyn on the release of histamine by an antigen-antibody reaction using rat abdominal mast cells were measured by a fluorescent method which is a modified method of Shore et al. (The Journal of Pharmacology and Experimental Therapeutics, 1959, vol. 127, pp. 182-186) with o-phthalaldehyde.

[3] = test system: spontaneous defecation in mice; settings: mouse, in vivo
Method: Doxantrazole was used by dissolving it in 5% (w/v) NaHCO3 aqueous solution, and compound 1 was used by dissolving it in 0.5% methylcellulose aqueous solutions Male ddY mice under no fasting were reared in individual cages from the evening of the previous day of the experiment. On the day of the experiment, each compound was administered intraperitoneally (doxantrazole) or orally (compound 1), and the number of stools spontaneously excreted for 2 hours after the initiation of the experiment was measured.

IBS patients = settings: cited from earlier work

Q: Which “inhibition of restraint stress-induced defecation at 1 mg/kg, po” value ([1]; 1 mg/kg, po) does the source give for `O=C(Nc1nnn[nH]1)c1cc(Oc2ccccc2)c2ccccn2c1=O` [Compound 1, N-(1H-tetrazol-5-yl)-1-phenoxy-4H-quinolizin-4-one-3-carboxamide] here?
A: The value was “inhibited it almost completely”.

Q: And the ED50 [1]?
A: The ED50 was 0.0071 mg/kg.

Q: What about the “inhibitory effects on restraint stress-induced defecation (dose dependence)” value [1] of the same molecule?
A: Its value is “in a dose-dependent manner”.

Q: And the “inhibitory effects on abdominal contractions, concomitant use with alosetron” value [2]?
A: Its value is “additively”.

Q: What about the “inhibitory effects on abdominal contractions, concomitant use with ramosetron” value ([2]; compound 1 0.01 mg/kg, po + ramosetron 0.01 mg/kg, po, FIG. 7) of the same molecule?
A: Its value is “additively”.

Q: And the “inhibitory effects on the abdominal contractions caused by the colorectal distention” value ([2]; male Wistar rats, 0.01 and 1 mg/kg, po, 30 min before distention, FIG. 6)?
A: Its value is “dose-dependent inhibitory effects”.

Q: And the IC50 (rat abdominal mast cells)?
A: The IC50 was 0.0074 µg/mL (≈ 0.0212 µM).

Q: And the “effect on the spontaneous defecation in mice” value [3]?
A: The value was “no effect”.

Q: What does the source list for `O=C(O)c1cc(=O)c2c(OCC(O)COc3cccc4oc(C(=O)O)cc(=O)c34)cccc2o1` [Cromolyn, sodium cromoglycate]?
A: inhibition of restraint stress-induced defecation at 100 mg/kg, ip ([1]; 100 mg/kg, ip): inhibited it almost completely; ED50 [1]: 19.9 mg/kg; inhibitory effects on restraint stress-induced defecation (dose dependence) [1]: in a dose-dependent manner; inhibitory effects on abdominal contractions, concomitant use with alosetron [2]: reinforcement of the effect was not found; IC50 (rat abdominal mast cells): 2.2 µg/mL

Q: Which “inhibitory effects on abdominal contractions, alosetron alone” value ([2]; 0.1 mg/kg, po) does the source give for `Cc1[nH]cnc1CN1CCc2c(c3ccccc3n2C)C1=O` [alosetron] here?
A: The value was “maximal inhibitory effects”.

Q: What about the “improvement rate for abdominal symptoms and diarrhea” value (IBS patients) of the same molecule?
A: Its value is “about 50%”.

Q: For `O=C1c2ccccc2S(=O)(=O)c2cc(-c3nnn[nH]3)ccc21` [doxantrazole], which “effect on the spontaneous defecation in mice” value [3] is on record?
A: Its value is “inhibitory tendency”.

Q: With `CN1CCC(=C2c3ccccc3CC(=O)c3sccc32)CC1` [ketotifen] as the molecule, how does the “inhibitory effects on restraint stress-induced defecation at the maximum” value ([1]; po, maximum effect, FIG. 4) read?
A: Its value is “about 30%”.

Q: For `Cn1cc(C(=O)[C@@H]2CCc3nc[nH]c3C2)c2ccccc21` [ramosetron], which “inhibitory effects on abdominal contractions, ramosetron alone” value ([2]; 0.01 mg/kg, po) is on record?
A: Its value is “maximal inhibitory effects”.
